≈ marks a conversion by molar mass, not a printed value. Read-outs that look alike come from different tables or passages of the source. *1 amine or outer side, *2 acyl side, *3 side chain or, on linkers, in order; H or OH if unused. Where a SMILES comes first, the peptide text is derived from it. Bridges are numbered along the chain shown (N, C = ends). Roman numbers before positions name the chains, in order. [ ]: non-standard residue; d: D form. Actinocin(9to1) = Cc1c2oc3c(C)ccc(C(=O)[*:1])c3nc-2c(C(=O)[*:2])c(N)c1=O; NMeV = CN[C@H](C(=O)O)C(C)C; Sar = CNCC(=O)O
Experiments:
[1] = tested on: human colon carcinoma HT-29; assay: Inhibition of nucleic acid synthesis in HT-29 cells in vitro; format: cell-based; conditions: 2-h exposure
From the text: In addition to the P388 cells, this inhibitory activity in human carcinoma HT-29 grown in tissue culture has been also examined. The values of the drug concentration producing 50% inhibition of the incorporation of [^3 H]-thymidine and [^14 C] uridine into nucleic acid macromolecules are presented in Table V. These values are taken as estimates of the inhibition of DNA and RNA synthesis. […] Furthermore, the inhibitory activities of these analogues are three-to fivefold higher than AMD; the order of potency of the analogues for their inhibition of DNA synthesis is:
DNA and RNA synthesis in P388 and HT-29 cells lines was monitored in the presence of drugs, and the rates of inhibition of their synthesis were estimated from the amounts of [2-^14 C]-uridine and [^3 H]-thymidine into RNA and DNA, respectively, according to the methods described previously.
In brief, for HT-29 colon carcinoma monolayer cells, 10^4 cells in each of five wells per concentration, were incubated with radiolabelec nucleosides ([…] each) for the last hour of a 2-h drug exposure, following which the cells were aspirated and washed with buffered medium. Cells were trypsinized and counted in the Coulter counter. The cell suspensions were then precipitated onto glass fiber filter discs (Whatman 934H), with 10% trichloracetic acid and twice with 95% ethanol and dried, and the incorporation of radionucleotides was estimated.
In addition, to investigate the cross contamination of radioactivity from [2^14 C] uridine, the cells were lysed with ice-cold 1% Triton X for 2.5 min. Macromolecules were precipitated with the addition of 10% perchloric acid (5% in the medium) and centrifuged; the pellet in 1% NaCl was treated with an equal volume of phenol reagent, the emulsion was centrifuged at 10000 g for 30 min at 4° C., and the separated layer was adjusted to 1% NaCl and treated with an equal volume of 2-ethoxyethanol to precipitate the nucleic acids. The precipitate was washed with 75% ethanol and dissolved in an aqueous solution containing 2% sodium acetate and 1.5% NaCl. An aliquot was used for estimation of the total radionucleotide incorporation. Ribonuclease, previously heated to 80° C. for 10 min to destroy deoxyribonuclease activity, was added, and the mixture was incubated at 37° C. for 30 min.
^a Human colon carcinoma in culture, IC50, drug concentration
producing a 50% inhibition of incorporation of precursor [^3 H]
thymidine into DNA and [^14 C] uridine into RNA in the cell lines,
isolated as acid preciptable materials. Data are average of replicate

[2] = tested on: rat liver microsomes; assay: Stimulation of adrenochrome formation (superoxide) by rat hepatic microsomal incubations; format: biochemical; conditions: for adrenochrome formation in presence of SOD: with SOD (superoxide dismutase) 5 ug/mL; for percentage stimulation of adrenochrome formation / adrenochrome formation: without SOD; for percentage stimulation of adrenochrome formation: (drug-stimulated rate - basal rate)/basal rate × 100; for adrenochrome formation: average ± standard error of triplicate
From the text: It has been reported that the quinone imino chromophore of actinomycin can be subjected to enzyme-catalyzed single-electron reduction to give free-radical species that generate superoxides by reacting with molecular oxygen. The process needs a reductive cofactor NADPH, which is oxidized to NADP^+ during the process, giving a change in the absorbance at 340 nm that can be measured spectrophotometerically. Alternatively, the superoxides generated during the process may be allowed to react with epinephrine to produce adrenochrome, a chromophore with strong absorbance at 480 nm that can be measured spectrophotmetrically.
The superoxide formations were studied via NADPH oxidation catalyzed by AMD analogues in the presence of rat liver microsomes. […] The process of adrenochrome formation is inhibited by superoxide dismutase, confirming that superoxide is indeed generated in these systems.
^a The percentage stimulation = (drugstimulated rate basal rate)/basa
rate × 100 and is shown in parentheses. NADPH oxidation was measure
at 340 nm and adrenochrome formation was measured at 489 nm; the values
are average ± standard errors of triplicate analyses. ^b SOD,

[3] = tested on: calf thymus DNA; conditions: value given with references 2,7; cited from earlier work
[4] = Solubility in water; format: physicochemical; conditions: for solubility in water: at 20° C.
Experimental: Synthesis of "Reverse" III AMD Analogue (RAD III, 3c). The synthesis of RAD III (3c) is shown schematically in Scheme I. Compound 4 was reacted with the benzyl ester of oxalacetic acid at 80° C. according to the procedure reported. The resulting product 5 with the CH2 COOCH2 C6 H5 substituent at the C-2 of the oxazole ring was debenzylated to 6, and compound 6 was coupled with excess 1,4-diaminobutane by DCC in pyridine. […] Like AMD and its other "reverse" analogues, RAD III (3c) is 16-fold more soluble in water at 4° C. than at 20° C.

[5] = tested on: mouse melanoma (B16); assay: In vitro inhibition of tumor cell growth; format: cell-based; conditions: B16 cell line
From the text: The comparative cell growth inhibitory activity of RAD's and SAD are reported (data in Table IV, supplementary material). The cell lines used are human lymphoblastic leukemia (CCRF-CEM), murine lymphocytic leukemia (P388) and lymphoid leukemia (L1210), and mouse melanoma (B16). […] In general, the cytotoxic potencies of the analogues are in the order: […]

[6] = tested on: calf thymus DNA; assay: Equilibrium binding constants from Scatchard plots of binding isotherms; conditions: 0.01M phosphate buffer, pH 7.0 at 20° C.
Experimental: The equilibrium binding constants of RAD III (3c), determined from the Scatchard plots of binding isotherms with use of calf thymus DNA, are Kapp, 2.9×10^6 M^-1, and Bapp, 0.040 in 0.01M phosphate buffer, pH 7.0 at 20° C.

[7] = tested on: colon tumor 26; assay: In vivo activity against colon tumor 26; set-up: species or system CDF1 mice; conditions: three doses over 9-day period
[8] = tested on: CX-1 human colon adenocarcinoma; assay: Chemotherapy of human colon CX-1 tumor heterotransplanted in nude mice; format: in vivo, human tumor in athymic mice
[9] = tested on: low molecular weight DNA; assay: Viscometry experiment (intercalation into DNA); format: binding; conditions: DNA 0.5×10^5 to 1.0×10^5 daltons
[10] = [3H]thymidine incorporation, read-out: IC50, DNA synth
[11] = [14C]uridine incorporation, read-out: IC50, RNA synth

SMILES | IC50 [1, 10] | IC50 [1, 11] | adrenochrome formation in presence of SOD [2] | percentage stimulation of adrenochrome formation [2] | adrenochrome formation [2] | Bapp [3] | Kapp (equilibrium binding constant) [3] | solubility in water [4] | cell growth inhibitory potency relative to AMD [5] | Bapp [6] | Kapp (equilibrium binding constant) [6] | activity against colon tumor 26 [7] | % T/C, optimal ([8]; dose 75 μg/kg iv once a week for three weeks, TST 18, observed day 27) | change in the intrinsic viscosity with increasing [ligand]/[DNA base pair] [9] | fold more soluble in water at 4° C. than at 20° C. ([4]; 4° C. vs 20° C.) | increase in %ILS over controls [7] | increase of survival rate at 60 days [7] | % T/C, optimal ([8]; dose 40 μg/kg iv once a week for three weeks, TST 15, observed day 22) | % T/C, optimal ([8]; dose 55 μg/kg iv once a week for three weeks, TST 15, observed day 22) | % T/C, optimal ([8]; dose 70 μg/kg iv once a week for three weeks, TST 15, observed day 32)
Cc1c2oc3c(C)ccc(C(=O)N[C@@H]4C(=O)N[C@H](C(C)C)C(=O)N5CCC[C@H]5C(=O)N(C)CC(=O)N(C)[C@@H](C(C)C)C(=O)O[C@@H]4C)c3nc-2c(C(=O)N[C@@H]2C(=O)N[C@H](C(C)C)C(=O)N3CCC[C@H]3C(=O)N(C)CC(=O)N(C)[C@@H](C(C)C)C(=O)O[C@@H]2C)c(N)c1=O [AMD (1), Actinomycin D] (I: T[dV]P[Sar][NMeV] / II: T[dV]P[Sar][NMeV]; ester I:1-I:C, II:1-II:C; linker I:N-II:N via Actinocin(9to1)) | 900 ± 80 nM | 100 ± 11 nM | inhibited | 8.5% | 2.29 ± 0.33 nmol/min per mg of protein | 0.108 | 2.3e+07 M⁻¹ | 1000 µg/mL (≈ 797 µM) |  |  |  |  |  |  |  |  |  |  |  | 
Cc1c2oc3c(C)c4oc(-c5ccccc5)nc4c(C(=O)N[C@@H]4C(=O)N[C@H](C(C)C)C(=O)N5CCC[C@H]5C(=O)N(C)CC(=O)N(C)[C@@H](C(C)C)C(=O)O[C@@H]4C)c3nc-2c(C(=O)N[C@@H]2C(=O)N[C@H](C(C)C)C(=O)N3CCC[C@H]3C(=O)N(C)CC(=O)N(C)[C@@H](C(C)C)C(=O)O[C@@H]2C)c(N)c1=O [RAD II (3b)] | 580 ± 55 nM | 68 ± 10 nM | inhibited | 800% | 18.8 ± 1.9 nmol/min per mg of protein |  |  |  |  |  |  |  |  |  |  |  |  |  |  | 
Cc1c2oc3c(C)c4oc(CC(=O)NCCCCN)nc4c(C(=O)N[C@@H]4C(=O)N[C@H](C(C)C)C(=O)N5CCC[C@H]5C(=O)N(C)CC(=O)N(C)[C@@H](C(C)C)C(=O)O[C@@H]4C)c3nc-2c(C(=O)N[C@@H]2C(=O)N[C@H](C(C)C)C(=O)N3CCC[C@H]3C(=O)N(C)CC(=O)N(C)[C@@H](C(C)C)C(=O)O[C@@H]2C)c(N)c1=O [RAD III (3c)] | 365 ± 45 nM | 45 ± 8 nM | inhibited | 870% | 22.1 ± 2.2 nmol/min per mg of protein |  |  | 2100 µg/mL (≈ 1470 µM) | two to fourfold | 0.040 | 2.9e+06 M⁻¹ | significant activity | 13% | failed to demonstrate any measurable change in the intrinsic viscosity | 16 fold |  |  |  |  | 
Cc1c2oc3c(C)c(O)c(N)c(C(=O)N[C@@H]4C(=O)N[C@H](C(C)C)C(=O)N5CCC[C@H]5C(=O)N(C)CC(=O)N(C)[C@@H](C(C)C)C(=O)O[C@@H]4C)c3nc-2c(C(=O)N[C@@H]2C(=O)N[C@H](C(C)C)C(=O)N3CCC[C@H]3C(=O)N(C)CC(=O)N(C)[C@@H](C(C)C)C(=O)O[C@@H]2C)c(N)c1=O [SAD (2)] | 70 ± 11 nM | 55 ± 6 nM | inhibited | 815% | 19.3 ± 1.04 nmol/min per mg of protein |  |  |  | two to fourfold |  |  | significant activity |  |  |  | 50-150% | 10-40% | 18% | 19% | 5%

Source: patent publication US4966962A, “Reverse analogue of actinomycin D” (Trustees of Boston University, priority 1988, dated 1990)
